Patent publication US9353067B2, “Heterocyclic compounds and uses thereof in the treatment of sexual disorders” (ATIR Holding S.A., priority 2011, dated 2016)

What was measured:
PARP-1 = PARP-1 (Homo sapiens (Human), UniProt P09874); assay: Universal Chemiluminescent PARP Assay; type: biochemical; details: average results from two assays
Procedure: In addition, R-55 and its hydrochloride salt were assayed for PARP (poly(ADP-ribose)polymerase) inhibitory activity, as some quinazolinone derivatives, particularly derivatives comprising quinazolinone linked via a three-carbon moiety to substituted pyridinyl and piperazinyl moieties, have been identified as potent PARP inhibitors [U.S. Patent Application Publication No. 2004/0077667; Iwashita et al., FEBS Lett 579:1389-1393(2005); Hattori et al., J Med Chem 47:4151-4154(2004)]. PARP plays a natural role in repair of DNA damage, and inhibition of PARP may lead to undesirable side effects in any treatment of a sexual disorder.
Inhibition of PARP-1 was assayed using a Universal Chemiluminescent PARP Assay (Trevigen, Inc.).
The tested compounds were diluted from 2.1 mg of powder in 25 μl of DMSO. The tested compounds were diluted to 100 μM in 1% DMSO/99% ethanol. 3-Aminobenzamide (3-AB), a commercially available weak PARP inhibitor, was used as a positive control. The activity of PARP was quantified as relative light units (RLU). Each of the tested compounds was assayed twice.
In Assay 1, the 100 μM stock solution was diluted to 40 μM in 1×PARP buffer. The compounds were then serially diluted down to 0.4 μM. Each tested compound was
further diluted 1:4 during the assay, so the final concentrations ranged from 10 μM to 0.1 μM.
In Assay 2, the 100 μM stock was added to 1×PARP buffer to prepare samples with concentrations ranging from 40 μM to 2 μM. A 10 μM stock solution was added to 1×PARP buffer to prepare samples with concentrations of 1 μM and 0.4 μM. Each tested compound was further diluted 1:4 during the assay, so the final concentrations ranged from 10 μM to 0.1 μM.

[1] = Hydrolysis (half-life) of esterified derivatives of R-55 in human plasma; type: in vitro ADME; details: for half-life at 0.19 mg/ml: fresh human plasma, hydrolysis of ester to R-55, human plasma, read-out: T1/2 in human plasma; for half-life at 0.19 mg/ml / % L-207 (hydrolysis of L-207 to R-55): 37° C.; for rate of hydrolysis (in words): human and rat plasma, comparison of acyl moieties; for % L-207 (hydrolysis of L-207 to R-55): human plasma
Procedure: (§1) 50 μl of dimethyl sulfoxide containing 0.2 mg of the tested derivative was added to 1 ml of fresh plasma (human or rat) in a sterile Eppendorf tube. The samples were then incubated at 37° C., and 100 μl samples were removed at various times, up to 120 minutes after incubation. The plasma samples were immediately added to 1 ml acetonitrile. After vigorous mixing by vortex, the samples were centrifuged for 10 minutes at 2000 rotations per minute at 4° C. 0.95 ml of the supernatant was then removed and stored at −20° C. until determination of the concentrations of R-55 and its esterified derivative by LCMS analysis.

[2] = Hydrolysis (half-life) of esterified derivatives of R-55 in rat plasma; type: in vitro ADME; details: 37° C.; for half-life at 0.19 mg/ml: fresh rat plasma, hydrolysis of ester to R-55, rat plasma, read-out: T1/2 in rat plasma; for % L-207 (hydrolysis of L-207 to R-55): rat plasma
Procedure: as §1

[3] = Solubility of L-207 in solvents; type: physicochemical
Text: The compound was soluble in dimethylformamide, dimethyl sulfoxide, tetrahydrofuran, chloroform, dichloromethane, and HCl in diethyl ether, and non-soluble in water.

[4] = target: D4.4 type dopamine receptor (Homo sapiens (Human), UniProt P21917); assay: Competitive binding to D4.4 receptor ([3H]-YM-09151-2); details: human recombinant receptor in CHO cells, [3H]-YM-09151-2 0.3 nM
Procedure: R-55 (which comprises a 3-hydroxyphenyl moiety) and its isomers L-221 (comprising a 4-hydroxyphenyl moiety) and L-238 (comprising a 2-hydroxyphenyl moiety) were assayed for competitive binding to D2 SHORT and D4.4 type dopamine receptors, in order to assess their efficacy for treating sexual disorders. Both receptor types are expressed as human recombinant proteins in CHO cells, as described, for example, in Jarvis et al. (1973); Van Tol et al. (1991) and Van Tol et al. (1992).
Determination of binding to D4.4 receptor was performed using [^3H]-YM-09151-2 (70-87 Ci/mmol, 0.3 nM), as a radioligand, in the presence of various concentrations of the tested compound. Reactions were carried out in 50 mM TRIS-HCl (pH 7.4) containing 5 mM MgCl2, 5 mM EDTA, 5 mM KCl and 1.5 mM CaCl2, for 60 minutes at 22° C. The reaction was terminated by rapid vacuum filtration onto glass fiber filters. Radioactivity trapped onto the filters was determined (counted) and compared to control values in order to accurately evaluate any interaction of the tested compound(s) with the cloned dopamine D4.4 binding site.

PARP-1, sequence (P09874 whole entry): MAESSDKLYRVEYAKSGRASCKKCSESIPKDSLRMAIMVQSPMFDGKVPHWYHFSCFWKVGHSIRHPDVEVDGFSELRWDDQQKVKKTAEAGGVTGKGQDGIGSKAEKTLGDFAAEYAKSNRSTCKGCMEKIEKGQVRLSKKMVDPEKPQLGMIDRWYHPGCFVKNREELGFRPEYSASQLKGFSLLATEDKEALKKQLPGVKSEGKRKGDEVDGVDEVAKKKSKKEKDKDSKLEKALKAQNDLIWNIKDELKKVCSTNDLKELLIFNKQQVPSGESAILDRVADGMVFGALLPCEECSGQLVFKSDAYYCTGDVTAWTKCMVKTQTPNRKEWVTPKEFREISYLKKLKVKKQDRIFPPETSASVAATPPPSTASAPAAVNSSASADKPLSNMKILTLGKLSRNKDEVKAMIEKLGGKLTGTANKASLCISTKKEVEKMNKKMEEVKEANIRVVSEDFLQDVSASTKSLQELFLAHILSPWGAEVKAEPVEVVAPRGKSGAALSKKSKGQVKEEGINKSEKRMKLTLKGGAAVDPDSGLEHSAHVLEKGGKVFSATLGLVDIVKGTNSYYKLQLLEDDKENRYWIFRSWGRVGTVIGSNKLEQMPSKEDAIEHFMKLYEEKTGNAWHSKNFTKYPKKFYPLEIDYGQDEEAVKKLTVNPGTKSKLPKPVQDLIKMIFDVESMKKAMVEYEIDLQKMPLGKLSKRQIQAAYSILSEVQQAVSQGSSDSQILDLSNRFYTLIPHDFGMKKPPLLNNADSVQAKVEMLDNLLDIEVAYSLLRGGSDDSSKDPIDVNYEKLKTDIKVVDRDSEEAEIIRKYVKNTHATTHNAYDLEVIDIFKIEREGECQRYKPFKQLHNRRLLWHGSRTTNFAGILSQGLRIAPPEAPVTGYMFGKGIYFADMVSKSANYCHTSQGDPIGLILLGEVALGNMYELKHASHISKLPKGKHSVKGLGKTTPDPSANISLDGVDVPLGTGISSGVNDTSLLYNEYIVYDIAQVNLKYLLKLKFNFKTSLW
D4.4 type dopamine receptor, sequence (P21917 whole entry): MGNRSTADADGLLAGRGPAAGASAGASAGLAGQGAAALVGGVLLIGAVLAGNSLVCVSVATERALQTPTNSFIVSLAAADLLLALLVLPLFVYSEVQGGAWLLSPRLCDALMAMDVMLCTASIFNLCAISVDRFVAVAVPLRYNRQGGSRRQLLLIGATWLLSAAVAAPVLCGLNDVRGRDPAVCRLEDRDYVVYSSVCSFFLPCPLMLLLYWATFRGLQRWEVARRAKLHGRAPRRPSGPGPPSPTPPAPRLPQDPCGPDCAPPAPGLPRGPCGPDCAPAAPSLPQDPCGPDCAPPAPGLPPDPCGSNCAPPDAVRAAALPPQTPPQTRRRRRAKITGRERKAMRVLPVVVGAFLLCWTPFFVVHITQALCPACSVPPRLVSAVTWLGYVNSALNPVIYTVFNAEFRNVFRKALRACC

SMILES	half-life at 0.19 mg/ml [1] [min]	half-life at 0.19 mg/ml [2] [min]	rate of hydrolysis (in words) [1]	other results
NC(=O)c1cccc(N)c1 [Compound 3-AB, 3-Aminobenzamide, reference compound]	–	–	–	inhibition at 5 µM (PARP-1; 5 μM): 21%; inhibition at 10 µM (PARP-1; 10 μM): 40%
COc1ccc(C(=O)Oc2cccc(N3CCN(Cc4nc5ccccc5c(=O)[nH]4)CC3)c2)cc1 [Compound L-162]	377	54	slower hydrolysis than exhibited by the corresponding non-substituted aryl	–
Cc1ccc(S(=O)(=O)Oc2cccc(N3CCN(Cc4nc5ccccc5c(=O)[nH]4)CC3)c2)cc1 [Compound L-163]	> 1000	> 1000	considerably slower hydrolysis than carboxyl esters	–
N#Cc1cccc(C(=O)Oc2cccc(N3CCN(Cc4nc5ccccc5c(=O)[nH]4)CC3)c2)c1 [Compound L-166]	480	7.1	–	–
O=C(Oc1cccc(N2CCN(Cc3nc4ccccc4c(=O)[nH]3)CC2)c1)C12CC3CC(CC(C3)C1)C2 [Compound L-167]	750	58	relatively slow hydrolysis	–
O=C(Oc1cccc(N2CCN(Cc3nc4ccccc4c(=O)[nH]3)CC2)c1)C1CCCCC1 [Compound L-169]	41	4.7	relatively rapid hydrolysis	–
COc1ccc(CC(=O)Oc2cccc(N3CCN(Cc4nc5ccccc5c(=O)[nH]4)CC3)c2)cc1 [Compound L-170]	280	7.5	–	–
CCOc1ccc(C(=O)Oc2cccc(N3CCN(Cc4nc5ccccc5c(=O)[nH]4)CC3)c2)cc1 [Compound L-173]	> 1000	16.5	considerably slower hydrolysis	–
COc1ccccc1C(=O)Oc1cccc(N2CCN(Cc3nc4ccccc4c(=O)[nH]3)CC2)c1 [Compound L-174]	455	52	slower hydrolysis than exhibited by the corresponding non-substituted aryl	–
O=c1[nH]c(CN2CCN(c3ccc(O)cc3)CC2)nc2ccccc12 [Compound L-221, 2-((4-(4-hydroxyphenyl)piperazin-1-yl)methyl)quinazolin-4-one]	–	–	–	IC50 [4]: ~30 µM

The next lines start with results.

half-life at 0.19 mg/ml [1] [min]	half-life at 0.19 mg/ml [2] [min]	SMILES	rate of hydrolysis (in words) [1]	other results
10	0.31	CCC(=O)Oc1cccc(N2CCN(Cc3nc4ccccc4c(=O)[nH]3)CC2)c1 [Compound L-128]	relatively rapid hydrolysis	–
> 1000	> 1000	CS(=O)(=O)Oc1cccc(N2CCN(Cc3nc4ccccc4c(=O)[nH]3)CC2)c1 [Compound L-164]	considerably slower hydrolysis than carboxyl esters	–
> 1000	44	Cc1ccccc1C(=O)Oc1cccc(N2CCN(Cc3nc4ccccc4c(=O)[nH]3)CC2)c1 [Compound L-199]	–	–
134	29	O=C(Oc1cccc(N2CCN(Cc3nc4ccccc4c(=O)[nH]3)CC2)c1)c1ccccc1 [Compound L-207]	relatively rapid hydrolysis	% L-207 (hydrolysis of L-207 to R-55) ([1]; 10 minutes): 97.54%; % L-207 (hydrolysis of L-207 to R-55) ([1]; 30 minutes): 89.21%; % L-207 (hydrolysis of L-207 to R-55) ([1]; 60 minutes): 77.11%; % L-207 (hydrolysis of L-207 to R-55) ([1]; 90 minutes): 64.67%; % L-207 (hydrolysis of L-207 to R-55) ([1]; 120 minutes): 52.91%; solubility in organic solvents ([3]; dimethylformamide, dimethyl sulfoxide, tetrahydrofuran, chloroform, dichloromethane, HCl in diethyl ether): soluble; solubility in water ([3]; water): non-soluble; % L-207 (hydrolysis of L-207 to R-55) ([2]; 0 minutes): 99.49%; % L-207 (hydrolysis of L-207 to R-55) ([2]; 15 minutes): 74.08%; % L-207 (hydrolysis of L-207 to R-55) ([2]; 30 minutes): 47.73%; % L-207 (hydrolysis of L-207 to R-55) ([2]; 60 minutes): 6.61%; % L-207 (hydrolysis of L-207 to R-55) ([2]; 90 minutes): 0.76%; % L-207 (hydrolysis of L-207 to R-55) ([2]; 120 minutes): 0.41%
470	35	O=C(Oc1cccc(N2CCN(Cc3nc4ccccc4c(=O)[nH]3)CC2)c1)c1ccc(F)cc1 [Compound L-209]	slower hydrolysis than exhibited by the corresponding non-substituted aryl	–
